Results on 33 compounds are retold here after ChEMBL document CHEMBL1135338, “Protease inhibitors: synthesis of matrix metalloproteinase and bacterial collagenase inhibitors incorporating 5-amino-2-mercapto-1,3,4-thiadiazole zinc binding functions” (Bioorg Med Chem Lett, 2002).

In assay [1] the target is Neutrophil collagenase (Homo sapiens, UniProt P22894). The assay is described as follows: Inhibition of human matrix metalloprotease-8.
The target in assay [2] is Matrix metalloproteinase-9 (Homo sapiens, UniProt P14780). In words: Inhibition of human matrix metalloprotease-9.
Assay [3] deals with T1, 72 kDa type IV collagenase (Homo sapiens, UniProt P08253). The assay is described as follows: Inhibition of human matrix metalloprotease-2.
Assay [4] has as its target T2, Interstitial collagenase (Homo sapiens, UniProt P03956).
T2 sequence (P03956 whole entry): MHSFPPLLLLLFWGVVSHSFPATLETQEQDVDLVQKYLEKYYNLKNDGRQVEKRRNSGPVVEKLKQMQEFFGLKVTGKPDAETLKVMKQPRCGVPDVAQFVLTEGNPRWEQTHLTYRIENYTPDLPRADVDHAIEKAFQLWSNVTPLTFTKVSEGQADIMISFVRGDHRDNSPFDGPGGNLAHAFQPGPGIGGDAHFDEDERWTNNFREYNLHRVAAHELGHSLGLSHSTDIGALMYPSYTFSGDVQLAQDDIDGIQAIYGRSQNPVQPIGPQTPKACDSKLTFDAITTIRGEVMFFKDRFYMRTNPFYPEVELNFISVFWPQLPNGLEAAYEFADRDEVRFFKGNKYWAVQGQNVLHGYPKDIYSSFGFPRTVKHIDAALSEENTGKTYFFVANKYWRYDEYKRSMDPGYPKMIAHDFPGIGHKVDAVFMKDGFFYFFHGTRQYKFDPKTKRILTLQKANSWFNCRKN
In words: Inhibition of human matrix metalloprotease-1.

Assay [5] concerns the target T1, 72 kDa type IV collagenase. The assay is described as follows: Inhibition of human Matrix metalloprotease-2.
Assay [6] deals with Stromelysin-1 (Homo sapiens, UniProt P08254). The assay is described as follows: Inhibition of human Matrix metalloprotease-3.
Chain of Stromelysin-1 (P08254 whole entry): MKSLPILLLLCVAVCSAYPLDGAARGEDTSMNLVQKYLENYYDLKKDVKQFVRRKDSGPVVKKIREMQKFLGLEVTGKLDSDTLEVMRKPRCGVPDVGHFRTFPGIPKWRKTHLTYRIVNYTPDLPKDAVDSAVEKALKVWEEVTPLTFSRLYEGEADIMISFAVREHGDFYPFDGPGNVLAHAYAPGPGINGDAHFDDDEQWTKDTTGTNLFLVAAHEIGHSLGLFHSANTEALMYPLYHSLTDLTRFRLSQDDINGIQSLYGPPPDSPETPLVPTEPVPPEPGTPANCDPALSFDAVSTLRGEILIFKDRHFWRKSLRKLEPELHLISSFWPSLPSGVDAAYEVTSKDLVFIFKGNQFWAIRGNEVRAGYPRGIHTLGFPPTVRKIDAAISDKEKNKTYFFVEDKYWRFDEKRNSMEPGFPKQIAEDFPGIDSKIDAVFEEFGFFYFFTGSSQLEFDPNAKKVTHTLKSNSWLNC

T1 sequence (P08253 whole entry): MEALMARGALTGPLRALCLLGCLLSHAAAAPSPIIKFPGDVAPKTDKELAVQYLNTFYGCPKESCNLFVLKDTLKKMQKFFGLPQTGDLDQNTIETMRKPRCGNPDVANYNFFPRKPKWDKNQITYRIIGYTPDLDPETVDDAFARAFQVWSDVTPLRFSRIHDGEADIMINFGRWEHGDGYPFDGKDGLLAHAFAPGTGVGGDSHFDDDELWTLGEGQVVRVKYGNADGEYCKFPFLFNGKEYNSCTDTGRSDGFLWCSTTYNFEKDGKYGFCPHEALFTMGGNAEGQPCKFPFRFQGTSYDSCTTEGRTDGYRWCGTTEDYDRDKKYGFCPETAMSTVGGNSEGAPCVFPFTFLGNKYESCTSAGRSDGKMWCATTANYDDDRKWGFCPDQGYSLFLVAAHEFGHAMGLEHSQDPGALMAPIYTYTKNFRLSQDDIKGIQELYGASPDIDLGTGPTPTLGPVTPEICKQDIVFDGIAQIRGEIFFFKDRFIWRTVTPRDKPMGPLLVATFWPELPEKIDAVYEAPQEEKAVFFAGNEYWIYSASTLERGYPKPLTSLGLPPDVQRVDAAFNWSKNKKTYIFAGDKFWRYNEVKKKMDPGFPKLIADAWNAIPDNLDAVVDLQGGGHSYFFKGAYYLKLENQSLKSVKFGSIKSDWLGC
Chain of Matrix metalloproteinase-9 (P14780 whole entry): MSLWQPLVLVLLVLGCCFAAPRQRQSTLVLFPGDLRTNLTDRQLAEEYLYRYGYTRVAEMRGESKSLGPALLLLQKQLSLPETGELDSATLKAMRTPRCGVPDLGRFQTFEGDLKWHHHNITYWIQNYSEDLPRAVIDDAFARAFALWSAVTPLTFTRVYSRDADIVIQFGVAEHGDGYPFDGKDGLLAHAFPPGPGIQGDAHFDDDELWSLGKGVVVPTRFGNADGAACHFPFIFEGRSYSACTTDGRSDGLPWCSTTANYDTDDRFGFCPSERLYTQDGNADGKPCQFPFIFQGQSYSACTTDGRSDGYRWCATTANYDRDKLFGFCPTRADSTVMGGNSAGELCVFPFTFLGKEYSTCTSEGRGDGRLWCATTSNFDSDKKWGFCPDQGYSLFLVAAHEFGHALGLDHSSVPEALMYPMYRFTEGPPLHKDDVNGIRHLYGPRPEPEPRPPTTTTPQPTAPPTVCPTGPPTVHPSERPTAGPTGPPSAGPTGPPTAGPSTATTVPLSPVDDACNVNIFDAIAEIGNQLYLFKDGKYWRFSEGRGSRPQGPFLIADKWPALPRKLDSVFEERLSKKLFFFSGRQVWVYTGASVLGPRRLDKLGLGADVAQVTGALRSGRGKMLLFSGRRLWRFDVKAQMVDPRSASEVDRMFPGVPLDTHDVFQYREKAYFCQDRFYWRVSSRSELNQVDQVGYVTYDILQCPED
Chain of Neutrophil collagenase (P22894 whole entry): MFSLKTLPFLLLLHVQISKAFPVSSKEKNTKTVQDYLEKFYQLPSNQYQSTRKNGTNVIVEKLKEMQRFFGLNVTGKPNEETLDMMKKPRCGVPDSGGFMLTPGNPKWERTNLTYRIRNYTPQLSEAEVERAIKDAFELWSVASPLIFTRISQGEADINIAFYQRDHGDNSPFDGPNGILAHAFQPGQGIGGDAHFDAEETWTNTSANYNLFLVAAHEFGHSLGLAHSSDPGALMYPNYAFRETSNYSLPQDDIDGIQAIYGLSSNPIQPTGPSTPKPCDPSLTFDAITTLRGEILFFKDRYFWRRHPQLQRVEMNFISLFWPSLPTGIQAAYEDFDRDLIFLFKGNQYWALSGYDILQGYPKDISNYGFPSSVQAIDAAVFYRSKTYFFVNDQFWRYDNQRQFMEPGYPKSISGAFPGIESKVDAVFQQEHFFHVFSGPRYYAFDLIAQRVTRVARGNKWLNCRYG

In the case of `C[C@H](NC(=O)[C@H](Cc1ccccc1)NS(=O)(=O)c1ccccc1)C(=O)Nc1n[nH]c(=S)s1`, the Ki (usually a dissociation constant, usually derived from enzyme kinetics or from competition with a known ligand) was determined as 24 µM in assay [1], 15 µM in assay [2], 18 µM in assay [3] and 22 µM in assay [4].
With `C[C@H](NC(=O)[C@H](Cc1ccccc1)NS(=O)(=O)c1ccccc1[N+](=O)[O-])C(=O)Nc1n[nH]c(=S)s1`, the Ki in assay [1] stood at 17 µM; in assay [2], 14 µM; in assay [3] it was 15 µM; in assay [4] it was 29 µM.
Take `CC(=O)Nc1ccc(S(=O)(=O)N[C@@H](Cc2ccccc2)C(=O)N[C@@H](C)C(=O)Nc2n[nH]c(=S)s2)cc1`: the inhibitory constant (Ki) in assay [2] is 10 µM; in assay [3] it was 8 µM; in assay [4], 14 µM.
With `C[C@H](NC(=O)[C@H](Cc1ccccc1)NS(=O)(=O)c1ccc2ccccc2c1)C(=O)Nc1n[nH]c(=S)s1`, the Ki in assay [1] came out at 45 µM; in assay [2] it was 53 µM; in assay [3] it was 33 µM; in assay [4], 72 µM.
For `C[C@H](NC(=O)[C@H](Cc1ccccc1)NS(=O)(=O)c1c(F)c(F)c(F)c(F)c1F)C(=O)Nc1n[nH]c(=S)s1`, the inhibition constant Ki in assay [1] worked out at 1 µM; in assay [2] it was 2 µM; in assay [3] it was 6 µM.
For the compound `C[C@H](NC(=O)[C@H](Cc1ccccc1)NS(=O)(=O)c1ccc(F)cc1)C(=O)Nc1n[nH]c(=S)s1`, the figures for the Ki in assay [2], in assay [3] and in assay [4] were 14 µM, 17 µM and 19 µM, respectively.
The corresponding values for `C[C@H](NC(=O)[C@H](Cc1ccccc1)NC(=O)NS(=O)(=O)c1ccccc1)C(=O)Nc1n[nH]c(=S)s1` are 4 µM, 5 µM and 19 µM.
For the compound `Cc1ccccc1S(=O)(=O)NC(=O)N[C@@H](Cc1ccccc1)C(=O)N[C@@H](C)C(=O)Nc1n[nH]c(=S)s1`, the inhibition constant (Ki) worked out at 6 µM in assay [1], 7 µM in assay [2], 8 µM in assay [3] and 19 µM in assay [4].
With `Cc1cc(C)c(S(=O)(=O)N[C@@H](Cc2ccccc2)C(=O)N[C@@H](C)C(=O)Nc2n[nH]c(=S)s2)c(C)c1`, the Ki in assay [1] was found to be 25 µM; in assay [2], 29 µM; in assay [3], 24 µM; in assay [4], 33 µM.
Consider `C[C@H](NC(=O)[C@H](Cc1ccccc1)NS(=O)(=O)c1cccc2ccccc12)C(=O)Nc1n[nH]c(=S)s1`, for which the inhibition constant Ki in assay [2] turned out to be 44 µM; in assay [3], 36 µM; in assay [4] it was 80 µM.
On to `C[C@H](NC(=O)[C@H](Cc1ccccc1)NS(=O)(=O)c1cc(Cl)ccc1Cl)C(=O)Nc1n[nH]c(=S)s1`, for which the inhibitory constant (Ki) in assay [1] is 9 µM; in assay [2], 17 µM; in assay [3], 10 µM; in assay [4], 19 µM.
On to `C[C@H](NC(=O)[C@H](Cc1ccccc1)NS(=O)(=O)c1cccc(C(F)(F)F)c1)C(=O)Nc1n[nH]c(=S)s1`, for which the Ki came to 5 µM in assay [2], 11 µM in assay [3] and 13 µM in assay [4].
Take `COc1ccc(S(=O)(=O)N[C@@H](Cc2ccccc2)C(=O)N[C@@H](C)C(=O)Nc2n[nH]c(=S)s2)cc1`: the inhibition constant Ki was determined as 20 µM in assay [1], 21 µM in assay [2], 18 µM in assay [3] and 28 µM in assay [4].
The corresponding values for `Cc1ccc(S(=O)(=O)NC(=O)N[C@@H](Cc2ccccc2)C(=O)N[C@@H](C)C(=O)Nc2n[nH]c(=S)s2)cc1` are 5 µM, 5 µM, 7 µM and 15 µM.
The like results for `C[C@H](NC(=O)[C@H](Cc1ccccc1)NC(=O)NS(=O)(=O)c1ccc(Cl)cc1)C(=O)Nc1n[nH]c(=S)s1` were, in that order, 0.2 µM, 0.4 µM, 4 µM and 10 µM.
The like results for `C[C@H](NC(=O)[C@H](Cc1ccccc1)NC(=O)NS(=O)(=O)c1ccc(F)cc1)C(=O)Nc1n[nH]c(=S)s1` were, in that order, 0.1 µM, 0.3 µM, 2 µM and 12 µM.
With `C[C@H](NC(=O)[C@H](Cc1ccccc1)NS(=O)(=O)c1cccc2c(N(C)C)cccc12)C(=O)Nc1n[nH]c(=S)s1`, the Ki turned out to be 48 µM in assay [1], 50 µM in assay [2], 40 µM in assay [3] and 87 µM in assay [4].
Turning to `C[C@H](NC(=O)[C@H](Cc1ccccc1)NS(=O)(=O)c1cccc([N+](=O)[O-])c1)C(=O)Nc1n[nH]c(=S)s1`, the Ki in assay [1] is 13 µM; in assay [2], 18 µM; in assay [3], 12 µM; in assay [4] it was 18 µM.
For the compound `C[C@H](NC(=O)[C@H](Cc1ccccc1)NS(=O)(=O)c1cccs1)C(=O)Nc1n[nH]c(=S)s1`, the inhibitory constant (Ki) amounted to 10 µM in assay [2], 13 µM in assay [3] and 14 µM in assay [4].
Regarding `C[C@H](NC(=O)[C@H](Cc1ccccc1)NS(=O)(=O)CC12CCC(CC1=O)C2(C)C)C(=O)Nc1n[nH]c(=S)s1` (stereo partly drawn), the Ki in assay [1] is 34 µM; in assay [2], 40 µM; in assay [3], 35 µM; in assay [4], 69 µM.
Take `C[C@H](NC(=O)[C@H](Cc1ccccc1)NS(=O)(=O)c1cccc2cccnc12)C(=O)Nc1n[nH]c(=S)s1`: the Ki in assay [1] stood at 39 µM; in assay [2], 45 µM; in assay [3] it was 41 µM; in assay [4], 74 µM.
The like results for `C[C@H](NC(=O)[C@H](Cc1ccccc1)NS(=O)(=O)c1ccc([N+](=O)[O-])cc1)C(=O)Nc1n[nH]c(=S)s1` were, in that order, 10 µM, 18 µM, 12 µM and 15 µM.
The like results for `Cc1ccc(S(=O)(=O)N[C@@H](Cc2ccccc2)C(=O)N[C@@H](C)C(=O)Nc2n[nH]c(=S)s2)cc1` were, in that order, 23 µM, 20 µM, 20 µM and 30 µM.
Regarding `C[C@H](NC(=O)[C@H](Cc1ccccc1)NS(=O)(=O)Cc1ccccc1)C(=O)Nc1n[nH]c(=S)s1`, the results for the Ki in assay [2], in assay [3] and in assay [4] were 16 µM, 16 µM and 24 µM, respectively.
Take `C[C@H](NC(=O)[C@H](Cc1ccccc1)NS(=O)(=O)c1ccc(Cl)cc1)C(=O)Nc1n[nH]c(=S)s1`: the figures for the inhibitory constant (Ki) in assay [2], in assay [3] and in assay [4] were 15 µM, 16 µM and 20 µM, respectively.
The corresponding values for `C[C@H](NC(=O)[C@H](Cc1ccccc1)NS(=O)(=O)c1ccc(Br)cc1)C(=O)Nc1n[nH]c(=S)s1` are 21 µM, 15 µM and 24 µM.
For the compound `C[C@H](NC(=O)[C@H](Cc1ccccc1)NS(=O)(=O)c1ccc(I)cc1)C(=O)Nc1n[nH]c(=S)s1`, the values for the Ki in assay [2], in assay [3] and in assay [4] were 18 µM, 17 µM and 21 µM, respectively.
In assay [5], `CC(C)C(NS(=O)(=O)c1ccc(-c2ccccc2)cc1)C(=O)O` (stereo not drawn) had a Ki of 2 µM.
In assay [5], `O=C(O)C(Cc1ccccc1)NS(=O)(=O)c1ccc(-c2ccc(Br)cc2)cc1` (stereo not drawn) came in with an inhibition constant (Ki) of 2 µM.
The same measure, in the same setting: as for `O=C(O)C(Cc1ccccc1)NS(=O)(=O)c1ccc(-c2ccccc2)cc1` (stereo not drawn), the figure is 2 µM; as for `CC(C)C(NS(=O)(=O)c1ccc(-c2ccc(Cl)cc2)cc1)C(=O)O` (stereo not drawn), 2 µM.
In assay [6], `O=C(O)[C@H](Cc1c[nH]c2ccccc12)NS(=O)(=O)c1ccc(N2CCC(c3ccccc3)CC2)cc1` returned a Ki of 0.019 µM.
In turn, `O=C(O)C(Cc1ccccc1)NS(=O)(=O)c1ccc(-c2ccc(Cl)cc2)cc1` (stereo not drawn) displayed a Ki in assay [5] of 2 µM.
